These results are taken from US10196393B2, “JAK inhibitors containing a 4-membered heterocyclic amide” (THERAVANCE BIOPHARMA R&D IP, LLC, priority 2017, dated 2019).

Each structure is given as a SMILES string. Like-named read-outs stand apart in the source and are kept apart here.

The subject of experiment [1] is IL-27 induced CXCL10 and CXCL9 secretion in EpiAirway tissue cultures. As to the kind of experiment: Inhibition of IL-27 induced chemokines CXCL9 and CXCL10 in human 3D airway cultures. Type of experiment: cell-based. As to conditions: 192 h, Day 8, ±STDV. On the procedure:
Assay 7: Inhibition of IFNγ and IL-27 Induced Chemokines CXCL9 and CXCL10 in Human 3D Airway Cultures
EpiAirway tissue cultures were obtained from Mattek (AIR-100). Cultures were derived from asthmatic donors. In a cell culture insert, human derived tracheal/bronchial epithelial cells were grown and differentiated on a porous membrane support, allowing an air-liquid interface with warmed culture medium below the cells and a gaseous test atmosphere above. Tissues were cultured in maintenance media (Mattek, AIR-100-MM) in a 37° C., 5% CO2 humidified incubator. Four donors were tested. On Day 0, tissue cultures were treated with test compounds at 10 μM, 1 μM and/or 0.1 μM. Compounds were diluted in dimethyl sulfoxide (DMSO, Sigma) to a final concentration of 0.1%. DMSO at 0.1% was used as a vehicle control. Test compounds were incubated with cultures for 1 hour at 37° C., 5% CO2, followed by the addition of pre-warmed media containing IFNγ (R&D Systems) or IL-27 (R&D Systems) at a final concentration at 100 ng/ml. Tissue cultures were maintained for 8 days. Media was replaced every 2 days with fresh media containing compounds and IFNγ or IL-27. On Day 8, tissue cultures and supernatants were collected for analysis. Supernatant samples were assayed for CXCL10 (IP-10) and CXCL9 (MIG) using luminex analysis (EMD Millipore). Data is expressed as % Inhibition +/−standard deviation (±STDV). Percent inhibition was determined by compound inhibitory potency against IFNγ or IL-27 induced CXCL10 or CXCL9 secretion compared to vehicle treated cells. Data is the average from 3 or 4 donors. […] The compound of example 2 was able to inhibit IFNγ induced CXCL9 secretion by 93%±13 (at 10 μM) and 24%±49 (at 1 μM) when compared to vehicle.

Experiment [2] deals with IL-4 stimulated STAT6 phosphorylation in CD3+ T cells. Put plainly: Cellular JAK potency assay: inhibition of IL-4 stimulated pSTAT6 in CD3+ T cells. Type of experiment: cell-based. Conditions: T-cell; CD3+ T cells in human PBMCs; read-out: pIC50, inhibition of IL-4 stimulated pSTAT6 (converted). As for the experimental part: Assay 10: Cellular JAK Potency Assay: Inhibition of IL-4 Stimulated pSTAT6 in CD3+ T Cells
The potency of the test compound for inhibition of interleukin-4 (IL-4) stimulated STAT6 phosphorylation was measured in CD3-positive (CD3+) T cells in human peripheral blood mononuclear cells (PBMCs) isolated from human whole blood (Stanford Blood Center) using flow cytometry. Because IL-4 signals through JAK, this assay provides a measure of JAK cellular potency.
CD3+ T cells were identified using a […] (PE) conjugated anti-CD3 antibody (Clone UCHT1, BD Biosciences), while an Alexa Fluor 647 conjugated anti-pSTAT6 antibody (pY641, Clone 18/P, BD Biosciences) was used to detect STAT6 phosphorylation.
Human peripheral blood mononuclear cells (PBMC) were isolated from human whole blood of healthy donors as in Assays 8 and 9. […] After incubation, cells were washed twice in FACS buffer before being analyzed using a LSRII flow cytometer (BD Biosciences).
To determine the inhibitory potency of the test compound in response to IL-4, the median fluorescent intensity (MFI) of pSTAT6 was measured in CD3+ T cells. IC50 values were determined from analysis of the inhibition curves of MFI vs compound concentration. Data are expressed as pIC50 (negative decadic logarithm IC50).

Setting [3] is: read-out: % inhibition of IL-27 induced CXCL9 secretion.
Where [4] appears, read: read-out: % inhibition of IL-27 induced CXCL10 secretion.

On to `CCc1cc(O)c(F)cc1-c1ccc2c(-c3nc4c([nH]3)CN(C(C)C)[C@H](C(=O)N3CC(N(C)C)C3)C4)n[nH]c2c1` [Example 2, (S)-(3-(dimethylamino)azetidin-1-yl)(2-(6-(2-ethyl-5-fluoro-4-hydroxyphenyl)-1H-indazol-3-yl)-5-isopropyl-4,5,6,7-tetrahydro-3H-imidazo[4,5-c]pyridin-6-yl)methanone], for which, in experiment [1] (setting [3]), the inhibition at 0.1 µM stood at 57%, the inhibition at 1 µM turned out to be 97% and the inhibition at 10 µM is 100%. Moreover, in experiment [1] (setting [4]), the inhibition at 0.1 µM is 69%, the inhibition at 1 µM came to 101% and the inhibition at 10 µM was 108%. The IC50 in experiment [2] is 12.6 nM.

By inhibition is commonly meant the change of the read-out against control, counted positive when it falls.
